Assays:
[1] = tested on: Candida albicans TS3; test: Anti-fungal broth microdilution (MIC), fungus F; type: cell-based; conditions: yeast protocol, more than 80% inhibition, 48 h
Experimental: (§1) Anti-fungal activity of selected compounds of the invention was assessed by means of anti-fungal susceptibility tests as follows.
(§2) The antifungal activities of the compounds of the invention against different fungi were measured according to standard broth microdilution methods of the US National Committee for Clinical Laboratory standards (NCCLS) for yeasts (NCCLS document M27-A, 1997) and filamentous fungi (NCCLS document M38-A, 2002).
(§3) Stock solutions of compounds of the invention were freshly prepared on the days of experiments equal to 1.28 mg/10 ml media. Serial dilutions were performed to achieve the following testing concentrations: 64 μg/ml, 32 μg/ml, 16 μg/ml, 8 μg/ml, 4 μg/ml, 2 μg/ml, 1 μg/ml, 0.5 μg/ml, 0.25 μg/ml and 0.125 μg/ml.
(§4) An inoculum of 10^6 CFU/ml of the fungi strain was prepared in the appropriate medium and transferred to test tubes for incubation.
(§5) The method is used to determine the minimum inhibitory concentrations (MIC) of drugs on fungi strains. […] For the filamentous fungi protocol, MIC determination took place after 48 to 72 h of culture at 35° C. and was defined at that concentration which produced more than 50% visible growth inhibition.

[2] = tested on: Candida parapsilosis ATCC 22019; test: Anti-fungal broth microdilution (MIC), fungus G; type: cell-based; conditions: yeast protocol, more than 80% inhibition, 48 h
Experimental: as §1, §2, §3, §4, §5

[3] = tested on: Aspergillus fumigatus 322-384; test: Anti-fungal broth microdilution (MIC), fungus B; type: cell-based; conditions: filamentous protocol, more than 50% growth inhibition, 48 to 72 h
Experimental: as §1, §2, §3, §4, §5

[4] = tested on: Aspergillus fumigatus ATCC 204305; test: Anti-fungal broth microdilution (MIC), fungus A; type: cell-based; conditions: filamentous protocol, more than 50% growth inhibition, 48 to 72 h
Experimental: as §1, §2, §3, §4, §5

[5] = tested on: Candida albicans ATCC 90028; test: Anti-fungal broth microdilution (MIC), fungus E; type: cell-based; conditions: yeast protocol, more than 80% inhibition, 48 h
Experimental: as §1, §2, §3, §4, §5

[6] = tested on: Cryptococcus gattii ATCC 32608; test: Anti-fungal broth microdilution (MIC), fungus J; type: cell-based; conditions: yeast protocol, more than 80% inhibition, 48 h
Experimental: as §1, §2, §3, §4, §5

[7] = tested on: Aspergillus fumigatus 040-200167; test: Anti-fungal broth microdilution (MIC), fungus C; type: cell-based; conditions: filamentous protocol, more than 50% growth inhibition, 48 to 72 h
Experimental: as §1, §2, §3, §4, §5

[8] = tested on: Candida albicans ATCC 10231; test: Anti-fungal broth microdilution (MIC), fungus D; type: cell-based; conditions: yeast protocol, more than 80% inhibition, 48 h
Experimental: as §1, §2, §3, §4, §5

[9] = tested on: Cryptococcus neoformans ATCC 90112; test: Anti-fungal broth microdilution (MIC), fungus H; type: cell-based; conditions: yeast protocol, more than 80% inhibition, 48 h
Experimental: as §1, §2, §3, §4, §5

[10] = tested on: Cryptococcus neoformans H99; test: Anti-fungal broth microdilution (MIC), fungus I; type: cell-based; conditions: yeast protocol, more than 80% inhibition, 48 h
Experimental: as §1, §2, §3, §4, §5

[11] = tested on: PC3, RKOp21 and SKOV-3 cell lines; test: XTT cytotoxicity assay, mean over all three cell lines; type: cell-based, human; conditions: mean value over all three cell lines
Experimental: Following 2 days of continuous drug exposure 50 μl of freshly prepared XTT-PMS solution {2% 0.386 mg/ml PMS (N-Methyl Dibenzopyrazine Methylsulphate; Sigma, Cat. No. […] Serva, Cat. No. 38450) in RPMI 1640 medium without phenol red} was added to the wells. To measure the proportion of living cells, the cells were incubated for 3 h with XTT-PMS reagent at 37° C., 5% CO2, humidified atmosphere allowing to form the formazan salt. […] Inhibition curves were generated and IC50 values calculated by using GraphPad Prism. In the following table 7 cytotoxicity results (% inhibition of cell growth) obtained in the second set of experiments for selected compounds of the invention are presented in comparison to examples of the prior art (perifosine, miltefosine). The results presented are individual values for the respective cell line as well as the mean value over all three cell lines tested.

[12] = tested on: PC3 (human prostate carcinoma) cells; test: XTT cytotoxicity assay, PC3 cells; type: cell-based; conditions: for inhibition at 31.6 µM: read-out: PC3 % INH [31.6 μM]
Experimental: (§6) Cytotoxicity of selected compounds of the invention against different mammalian cell lines was assessed as follows.
(§7) Human tumor cell lines KB/HeLa (ATCC CCL17, human cervix carcinoma), PC3 (ATCC CRL1435, human prostate carcinoma) and RKOp21 (human colon adenocarcinoma; Schmidt et al., Oncogene 2000, 19: 2423-2429) cells were used in an automated XTT screening assay for the assessment of cytotoxicity.
(§8) The XTT assay quantifies cellular metabolic activity which correlates with cell viability and cell number. Test compounds (selected compounds of the invention and known substances as controls) are dissolved in culture medium at 600 μM and added to the tumor cells in 10 different concentrations in a semi-logarithmic fashion starting from 100 μM as highest concentration.
(§9) In a second set of experiments employing PC3, RKOp21 and SKOV-3 (ATCC HTB-77, human ovary adenocarcinoma) cells, test and reference compounds were dissolved in 70% Ethanol/30% H2O in a stock concentration of 10 mM and diluted in cell culture medium to yield either 31.6 μM (PC3 and RKOp21) or 100 μM (SKOV-3) final concentration.
(§10) 48 h later cellular metabolic activity of cells treated with test compounds is quantified by measurement of the absorbance at 490 nm (conversion of XTT dye) in comparison to untreated control cells (100% viability).
(§11) KB/HeLa and PC3 cells were cultivated in RPMI 1640 medium (Gibco, Cat. No. 42401-018) supplemented with 10% heat inactivated fetal calf serum (FCS, Biochrom AG, Cat. No. S0115), 2 mM L-glutamine (Gibco, Cat. No. 25030-24) and 2% Penicillin-Streptomycin (PenStrep, Gibco, Cat. No. 15140-122). RKOp21 cells were grown in DMEM+GlutaMAXTM-I medium (Gibco, Cat. No. 61965-026) supplemented with 10% heat inactivated fetal calf serum (FCS, Biochrom AG, Cat. No. S0115), 2 mM L-glutamine (Gibco, Cat. No. 25030-24), 2% Penicillin-Streptomycin (PenStrep, Gibco, Cat. No. 15140-122) and 1% 1M HEPES (Gibco, Cat. No. 15630-056). All cells were cultured at 37° C. in 5% CO2 humidified air.
(§12) On the first day of the experiment cells were harvested from exponential phase cultures by trypsination, counted and plated into 96 well flat-bottom micro titer plates depending on the cell line as listed below:
(§13) After a 24 h recovery to allow the cells to resume exponential growth, the test compounds were diluted immediately prior to use and transferred in 25 μl volume to the wells.
(§14) Following 2 days of continuous drug exposure 50 μl of freshly prepared XTT-PMS solution {2% 0.386 mg/ml PMS (N-Methyl Dibenzopyrazine Methylsulphate; Sigma, Cat. No. P9625) in PBS+98% 1 mg/ml XTT (Sodium 2,3-bis(2-methoxy-4-nitro-5-sulfophenyl)-5-[(phenylamino)carbonyl]-2H-Tetrazolium; Serva, Cat. No. 38450) in RPMI 1640 medium without phenol red} was added to the wells. To measure the proportion of living cells, the cells were incubated for 3 h with XTT-PMS reagent at 37° C., 5% CO2, humidified atmosphere allowing to form the formazan salt. The amount of soluble formazan salt produced by cellular reduction of XTT is quantified by measuring the absorbance at 490 nm using the Biomek® 2000 ELISA plate reader. %-inhibition (cytotoxicity) of each test compound was calculated in relation to untreated control cells. Inhibition curves were generated and IC50 values calculated by using GraphPad Prism.

[13] = tested on: SKOV-3 (human ovary adenocarcinoma) cells; test: XTT cytotoxicity assay, SKOV-3 cells; type: cell-based; conditions: for inhibition at 100 µM: Homo sapiens, SK-OV-3, second set of experiments, read-out: SKOV-3 % INH [100 μM]
Experimental: On the first day of the experiment cells were harvested from exponential phase cultures by trypsination, counted and plated into 96 well flat-bottom micro titer plates depending on the cell line as listed below: [table] After a 24 h recovery to allow the cells to resume exponential growth, the test compounds were diluted immediately prior to use and transferred in 25 μl volume to the wells. Following 2 days of continuous drug exposure 50 μl of freshly prepared XTT-PMS solution {2% 0.386 mg/ml PMS (N-Methyl Dibenzopyrazine Methylsulphate; Sigma, Cat. No. […] Serva, Cat. No. 38450) in RPMI 1640 medium without phenol red} was added to the wells. To measure the proportion of living cells, the cells were incubated for 3 h with XTT-PMS reagent at 37° C., 5% CO2, humidified atmosphere allowing to form the formazan salt. […] Inhibition curves were generated and IC50 values calculated by using GraphPad Prism.

[14] = tested on: RKOp21 (human colon adenocarcinoma) cells; test: XTT cytotoxicity assay, RKOp21 cells; type: cell-based; conditions: for inhibition at 31.6 µM: read-out: RKOp21 % INH [31.6 μM]
Experimental: as §6, §7, §8, §9, §10, §11, §12, §13, §14

[15] = tested on: KB/HeLa (human cervix carcinoma) cells; test: XTT cytotoxicity assay, KB/HeLa cells; type: cell-based; conditions: Homo sapiens, HeLa; XTT, 48 h exposure; read-out: KB/HELA [IC50 (μM)]
Experimental: as §6, §7, §8, §10, §11, §12, §13, §14

[16] = Homo sapiens, PC-3, 31.6 μM, second set of experiments
[17] = Homo sapiens, 31.6 μM, second set of experiments
[18] = 31.6 μM, second set of experiments

## CCCCCCCCCCCCCCCCCCOP(=O)([O-])OCC[As+](C)(C)C [Compound 22, Phosphoric acid octadecyl ester 2-(N,N,N-trimethyl-arsen)-ethyl ester]
[1]
  MIC, fungus F: 1 µg/mL
[2]
  MIC, fungus G: 1 µg/mL
[3]
  MIC, fungus B: 2 µg/mL
[4]
  MIC, fungus A: 3 µg/mL
[5]
  MIC, fungus E: 1 µg/mL
[6]
  MIC, fungus J: 0.5 µg/mL
[7]
  MIC, fungus C: 3 µg/mL
[8]
  MIC, fungus D: 0.5 µg/mL
[9]
  MIC, fungus H: 1.5 µg/mL
[10]
  MIC, fungus I: 6.6 µg/mL

## CCCCCCCCCCCCCCCCCCOP(=O)([O-])OC1CC[N+](C)(C)CC1 [perifosine, octadecyl-1,1-dimethyl-piperidino-4-yl-phosphate, reference compound]
[11]
  Mean % INH: 78.0%
[12]; [16]
  inhibition at 31.6 µM: 80.2%
[13]
  inhibition at 100 µM: 90.7%
[14]; [17]
  inhibition at 31.6 µM: 63%

## CCCCCCCCCCCCCCCCOP(=O)([O-])OCCCC[N+](C)(C)C [Compound 314]
[11]
  Mean % INH: 31.8%
[12]; [18]
  PC3 % INH [31.6 μM]: 51.6%
[13]; second set of experiments
  SKOV-3 % INH [100 μM]: 33.2%
[14]; [18]
  RKOp21 % INH [31.6 μM]: 10.6%

## CCCCCCCCC#CCCCCCCCCOP(=O)([O-])OCC[N+](C)(C)C [Compound 144]
[11]
  Mean % INH: 19.7%
[12]; [16]
  inhibition at 31.6 µM: 14%
[12]; Homo sapiens, PC-3, XTT, 48 h exposure, read-out: PC3 [IC50 (μM)]
  IC50: > 100 µM
[13]
  inhibition at 100 µM: -3%
[14]; [17]
  inhibition at 31.6 µM: 48%
[14]; Homo sapiens, XTT, 48 h exposure, read-out: RKOp21 [IC50 (μM)]
  IC50: 51.1 µM
[15]
  IC50: > 100 µM

Reference: patent US20070167408A1, “NOVEL ALKYL PHOSPHOLIPID DERIVATIVES WITH REDUCED CYTOTOXICITY AND USES THEREOF” (ZENTARIS GmbH, priority 2005, published 2007)
